Experiment [1] concerns the target T1, ALS (Oryza sativa subsp. japonica, UniProt Q6K2E8).
T1 construct: 150 mg of leaves were sampled, finely cut, and then put into a petri dish; from tissue; host or cells: rice leaves (wild-type plants)
T1 sequence (Q6K2E8 44-644): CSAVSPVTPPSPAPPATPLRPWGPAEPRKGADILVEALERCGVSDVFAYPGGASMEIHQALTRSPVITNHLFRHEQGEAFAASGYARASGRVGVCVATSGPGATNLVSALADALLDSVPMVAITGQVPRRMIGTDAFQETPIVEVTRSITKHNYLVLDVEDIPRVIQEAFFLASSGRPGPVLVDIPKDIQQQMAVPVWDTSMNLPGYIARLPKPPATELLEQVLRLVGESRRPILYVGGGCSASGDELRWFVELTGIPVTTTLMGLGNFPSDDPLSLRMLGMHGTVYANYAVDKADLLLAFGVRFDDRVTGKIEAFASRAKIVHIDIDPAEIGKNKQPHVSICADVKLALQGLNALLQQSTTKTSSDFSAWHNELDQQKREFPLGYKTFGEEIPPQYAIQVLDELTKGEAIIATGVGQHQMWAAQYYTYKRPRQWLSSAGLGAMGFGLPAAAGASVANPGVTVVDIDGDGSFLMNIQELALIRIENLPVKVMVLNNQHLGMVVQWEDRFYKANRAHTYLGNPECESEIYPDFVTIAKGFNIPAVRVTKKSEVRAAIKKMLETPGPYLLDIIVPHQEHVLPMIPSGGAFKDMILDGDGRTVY
Briefly: in vivo ALS assay on cut rice leaves (red colour development). The class given is cell-based. To be noted: wild-type rice leaves, 0.15 μM (final concentration) BS, 30 °C under light for 1 day. The protocol: (§1) A treatment solution (mixed salts for 25% MS media; 500 μM (final concentration) 1,1-cyclopropanedicarboxilic acid (CPCA); 5 μg Triton X-100; and 0.15 μM (final concentration) BS) was added to the dish, and the resultant was allowed to stand at 30 ° C. under light conditions (140001×) for 1 day. After reaction, the treated leaves were put into a 1.5 ml micro tube and then 200 μl of distilled water containing 0.025% Triton X-100 was added thereto. After the solution had been allowed to stand at 60° C. for 5 minutes, extraction was carried out with sonication (frequency of 40 kHz) for 15 minutes. 200 μl of the supernatant was transferred into another tube, 20 μl of 5% (v/v) sulfuric acid was added thereto, and then the resultant was allowed to stand at 60° C. for 30 minutes. Subsequently, 100 μl of a 0.5% (w/v) creatine and 100 μl of a 5% (w/v) 1-naphthol (prepared at the time of use) dissolved in a 2.5 N NaOH solution were added to the solution. The solution was allowed to stand at 37° C. for 30 minutes. […] It is understood that in the case of wild-type rice, the ALS gene was inhibited by addition of BS so that a red color was not developed.

Experiment [2] concerns the target T2, ALS (Oryza sativa subsp. japonica, UniProt Q6K2E8, S627I/W548L).
T2 construct: 150 mg of leaves were sampled, finely cut, and then put into a petri dish; from tissue; host or cells: rice leaves (wild-type plants)
Described as above. The class given is cell-based. To be noted: leaves of rice with the ALS-promoter-driven BS-resistance (two-point mutated) ALS gene, 0.15 μM BS, 30 °C under light for 1 day. On the procedure:
as §1

Structures are written as SMILES.

T2 sequence (Q6K2E8 44-644 W548L/S627I): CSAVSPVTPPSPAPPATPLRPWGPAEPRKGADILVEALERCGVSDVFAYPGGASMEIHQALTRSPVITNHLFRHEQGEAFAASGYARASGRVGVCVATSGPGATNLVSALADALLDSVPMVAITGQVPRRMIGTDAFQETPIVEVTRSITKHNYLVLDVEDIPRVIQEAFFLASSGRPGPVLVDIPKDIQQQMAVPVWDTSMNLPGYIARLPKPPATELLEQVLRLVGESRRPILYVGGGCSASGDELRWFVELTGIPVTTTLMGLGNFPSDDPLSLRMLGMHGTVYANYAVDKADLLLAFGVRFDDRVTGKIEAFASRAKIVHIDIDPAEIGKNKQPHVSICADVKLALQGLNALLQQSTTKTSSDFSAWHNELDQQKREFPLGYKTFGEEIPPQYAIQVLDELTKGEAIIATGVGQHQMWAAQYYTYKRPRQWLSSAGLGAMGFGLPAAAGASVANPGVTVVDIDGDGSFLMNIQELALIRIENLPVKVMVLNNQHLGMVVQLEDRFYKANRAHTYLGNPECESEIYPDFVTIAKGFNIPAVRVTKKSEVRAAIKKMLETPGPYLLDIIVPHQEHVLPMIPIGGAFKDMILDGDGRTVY

For the compound `COc1cc(OC)nc(Oc2cccc(Oc3nc(OC)cc(OC)n3)c2C(=O)[O-])n1.[Na+]` [BS, Bispyribac sodium salt], at ALS [1], the “ALS inhibition by addition of BS (red color development)” value was “inhibited”. Moreover, at ALS [2], the “ALS activity with BS added (red color development)” value is “development of a red color similar to that developed by a group of rice plants to which no BS had been added”.

Source of the values: US7238864B2, “Acetolactate synthase gene promoter” (priority 2004, dated 2007).
